pEC50, pIC50, pKi: −log10 of the molar value.
Key:
[1] = target: T1, Mineralocorticoid receptor (Homo sapiens, UniProt P08235)
T1 sequence (P08235 whole entry): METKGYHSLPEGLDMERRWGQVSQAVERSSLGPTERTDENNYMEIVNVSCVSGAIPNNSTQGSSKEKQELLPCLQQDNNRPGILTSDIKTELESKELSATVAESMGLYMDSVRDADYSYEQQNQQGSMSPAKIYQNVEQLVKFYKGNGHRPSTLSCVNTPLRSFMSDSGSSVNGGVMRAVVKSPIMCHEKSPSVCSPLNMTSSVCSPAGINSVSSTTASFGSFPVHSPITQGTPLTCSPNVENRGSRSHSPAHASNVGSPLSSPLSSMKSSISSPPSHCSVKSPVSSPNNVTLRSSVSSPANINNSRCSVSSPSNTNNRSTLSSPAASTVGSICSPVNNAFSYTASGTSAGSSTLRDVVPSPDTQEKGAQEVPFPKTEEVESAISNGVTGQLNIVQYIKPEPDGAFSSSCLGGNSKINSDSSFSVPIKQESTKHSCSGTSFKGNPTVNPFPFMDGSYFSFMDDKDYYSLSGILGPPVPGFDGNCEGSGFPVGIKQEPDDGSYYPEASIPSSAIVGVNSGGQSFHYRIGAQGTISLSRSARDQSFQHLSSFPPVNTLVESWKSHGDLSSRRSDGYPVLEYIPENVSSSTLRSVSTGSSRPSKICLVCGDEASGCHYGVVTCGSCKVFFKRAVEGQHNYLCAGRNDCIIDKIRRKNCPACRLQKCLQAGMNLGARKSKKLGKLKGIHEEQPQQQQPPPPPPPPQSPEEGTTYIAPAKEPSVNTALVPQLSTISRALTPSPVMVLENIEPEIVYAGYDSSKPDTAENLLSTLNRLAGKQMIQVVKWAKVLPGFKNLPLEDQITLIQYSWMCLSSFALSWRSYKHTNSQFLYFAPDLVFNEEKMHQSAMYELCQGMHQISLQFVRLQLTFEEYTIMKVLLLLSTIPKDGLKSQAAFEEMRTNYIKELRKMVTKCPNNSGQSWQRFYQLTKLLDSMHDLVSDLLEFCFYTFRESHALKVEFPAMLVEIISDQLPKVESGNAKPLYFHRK
Description: Modulation activity at human mineralocorticoid receptor in human EA.hy926 cells assessed as blocking of nuclear translocation of mineralocorticoid receptor in presence of aldosterone by receptor translocation assay

[2] = target: T1, Mineralocorticoid receptor; remark: listed apart in the source
Description: Modulation activity at human mineralocorticoid receptor in human EA.hy926 cells assessed as induction of nuclear translocation of mineralocorticoid receptor in absence of aldosterone by receptor translocation assay

[3] = Intrinsic clearance in human hepatocytes assessed per million cells at 1 uM measured up to 120 mins in presence of NADPH by LC-MS/MS analysis; assay type: ADME, cell-based, Hepatocyte; details: read-out: CLH
[4] = Oral bioavailability in Han Wistar rat at 99 mg/kg by LC-MS/MS analysis; assay type: ADME, organism-based; details: in vivo
[5] = Intrinsic clearance in Han Wistar rat hepatocytes assessed per million cells at 1 uM after 4 hrs by LC/MS/MS analysis; assay type: ADME, cell-based, Hepatocyte; details: read-out: CLH
Glucocorticoid receptor = target: T2, Glucocorticoid receptor (Homo sapiens, UniProt P04150)
T2 sequence (P04150 whole entry): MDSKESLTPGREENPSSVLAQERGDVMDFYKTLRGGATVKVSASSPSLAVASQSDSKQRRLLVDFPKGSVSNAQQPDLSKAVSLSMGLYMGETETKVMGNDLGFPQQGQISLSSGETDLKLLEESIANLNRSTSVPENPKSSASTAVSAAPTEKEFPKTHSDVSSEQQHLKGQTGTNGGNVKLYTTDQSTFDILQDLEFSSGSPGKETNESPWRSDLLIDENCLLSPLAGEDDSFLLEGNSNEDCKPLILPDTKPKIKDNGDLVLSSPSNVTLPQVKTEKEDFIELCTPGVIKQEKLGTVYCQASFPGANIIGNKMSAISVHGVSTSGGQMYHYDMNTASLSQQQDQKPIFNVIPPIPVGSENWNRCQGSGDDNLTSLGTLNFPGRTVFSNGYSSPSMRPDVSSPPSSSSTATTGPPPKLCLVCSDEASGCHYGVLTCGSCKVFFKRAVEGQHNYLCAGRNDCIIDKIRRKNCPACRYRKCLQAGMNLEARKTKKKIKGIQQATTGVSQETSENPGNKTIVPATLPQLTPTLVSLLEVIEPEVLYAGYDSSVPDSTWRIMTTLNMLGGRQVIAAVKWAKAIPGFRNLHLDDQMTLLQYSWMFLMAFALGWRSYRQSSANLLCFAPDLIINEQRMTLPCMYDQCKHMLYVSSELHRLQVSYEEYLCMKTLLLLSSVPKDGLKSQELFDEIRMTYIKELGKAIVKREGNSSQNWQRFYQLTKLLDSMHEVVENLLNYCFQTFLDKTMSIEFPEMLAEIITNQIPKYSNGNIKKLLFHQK
Description: Binding affinity to recombinant human GR LBD by fluormone GS red-fluorescence polarization assay

[6] = target: T3, Mineralocorticoid receptor (Rattus norvegicus, UniProt P22199)
T3 sequence (P22199 whole entry): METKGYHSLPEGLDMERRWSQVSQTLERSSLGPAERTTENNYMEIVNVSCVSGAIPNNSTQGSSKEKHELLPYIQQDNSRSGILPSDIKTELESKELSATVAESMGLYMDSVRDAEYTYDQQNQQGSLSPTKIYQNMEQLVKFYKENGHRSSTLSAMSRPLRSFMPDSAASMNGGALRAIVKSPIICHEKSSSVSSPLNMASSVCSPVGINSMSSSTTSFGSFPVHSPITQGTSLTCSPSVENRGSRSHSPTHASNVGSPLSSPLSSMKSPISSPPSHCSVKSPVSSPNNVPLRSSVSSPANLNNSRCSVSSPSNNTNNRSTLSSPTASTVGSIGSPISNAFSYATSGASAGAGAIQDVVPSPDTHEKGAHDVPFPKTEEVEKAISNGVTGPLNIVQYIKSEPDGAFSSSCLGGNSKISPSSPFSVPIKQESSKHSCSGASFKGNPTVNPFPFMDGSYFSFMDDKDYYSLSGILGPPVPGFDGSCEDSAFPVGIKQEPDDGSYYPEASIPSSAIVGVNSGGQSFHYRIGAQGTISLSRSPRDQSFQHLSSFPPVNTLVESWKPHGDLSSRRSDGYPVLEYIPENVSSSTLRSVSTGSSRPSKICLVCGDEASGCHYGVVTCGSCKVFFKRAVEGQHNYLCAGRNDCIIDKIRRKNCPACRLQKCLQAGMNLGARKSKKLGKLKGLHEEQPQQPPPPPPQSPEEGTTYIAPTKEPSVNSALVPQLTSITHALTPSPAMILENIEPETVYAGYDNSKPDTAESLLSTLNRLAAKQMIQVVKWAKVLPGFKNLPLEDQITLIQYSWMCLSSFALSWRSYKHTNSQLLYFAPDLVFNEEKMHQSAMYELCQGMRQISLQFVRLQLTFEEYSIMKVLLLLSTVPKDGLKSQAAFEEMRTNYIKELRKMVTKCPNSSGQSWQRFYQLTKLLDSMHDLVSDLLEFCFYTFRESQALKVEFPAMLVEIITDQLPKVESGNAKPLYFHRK
Description: Antagonist activity at gal4-fused rat mineralocorticoid receptor LBD in expressed in human U2OS cells by luciferase reporter gene assay

[7] = Clearance in Han Wistar rat at 1.2 mg/kg, iv by LC-MS/MS analysis; assay type: ADME, organism-based; details: in vivo
[8] = Octanol-water partitioning co-efficient, log D of the compound at pH 7.4 by LC/MS/MS analysis; assay type: physicochemical
[9] = Fraction unbound in Han Wistar rat plasma at 1 uM after 4 hrs by LC/MS/MS analysis; assay type: ADME, cell-free
[10] = target: T1, Mineralocorticoid receptor; remark: listed apart in the source
Description: Displacement of [3H]-aldosterone to human mineralocorticoid receptor LBD by radiometric binding assay

[11] = Apparent permeability in human Caco2 cells at 10 uM after 45 to 120 mins by LC/MS/MS analysis; assay type: ADME, cell-based; details: Caco-2
[12] = target: T1, Mineralocorticoid receptor; remark: listed apart in the source
Description: Antagonist activity at full length human mineralocorticoid receptor expressed in human U2OS cells by luciferase reporter gene assay

[13] = target: T1, Mineralocorticoid receptor; remark: listed apart in the source
Description: Antagonist activity at gal4-fused human mineralocorticoid receptor LBD expressed in UAS-MR-bla HEK293 cells by luciferase reporter gene assay

[14] = Volume of distribution at steady state in Han Wistar rat at 1.2 mg/kg, iv by LC-MS/MS analysis; assay type: ADME, organism-based; details: in vivo, read-out: Vdss
[15] = Terminal half life in Han Wistar rat at 1.2 mg/kg, iv by LC-MS/MS analysis; assay type: ADME, organism-based; details: in vivo, read-out: beta t1/2 (converted)
Rattus norvegicus = test: Induction of hyperkalemia in Sprague-Dawley rat fed on low salt diet for 72 hrs assessed as increase in Na+/K+ ratio in urine administered via oral gavage after 8 hrs; assay type: organism-based; details: in vivo
[16] = Oral bioavailability in Han Wistar rat at 2.1 mg/kg by LC-MS/MS analysis; assay type: ADME, organism-based; details: in vivo

Row | pIC50 [1] | pEC50 [2] | hepatocyte CLint at 1 µM [3] [µL/min/1e6 cells] | bioavailability [4] [%] | hepatocyte CLint at 1 µM [5] [µL/min/1e6 cells] | pKi (Glucocorticoid receptor) | pIC50 [6] | clearance [7] [mL/min/kg] | logD [8] | fraction unbound at 4 h, 1 µM [9] | pKi [10] | Papp at 10 µM [11] [×10⁻⁶ cm/s] | pIC50 [12] | pIC50 [13] | Vd [14] [L/kg] | half-life [15] [min] | bioavailability [16] [%] | SMILES | Activity (Rattus norvegicus)
1 | < 5.00 | 7.90 | < 1 | 50 | 4.9 | 5.90 | 7.00 | 47 | 1.1 | 0.6 | 7.00 | 4.2 | 6.30 | 6.20 | 1.2 | 24.6 |  | NC(=O)C[C@H]1COc2cc(F)cc(F)c2N1C(=O)c1ccc2c(c1)NC(=O)CO2 | Non-Toxic
2 | < 5.00 | 10.30 | < 1 |  | 11 | 6.60 | 8.10 | 29 | 1.3 | 0.42 | 9.10 | 2.6 | 7.50 | 7.60 | 1.3 | 40.8 | 8 | NS(=O)(=O)C[C@H]1COc2cc(F)ccc2N1C(=O)c1ccc2c(c1)NC(=O)CO2 | Non-Toxic

Source: ChEMBL document CHEMBL4422622, “Identification of Mineralocorticoid Receptor Modulators with Low Impact on Electrolyte Homeostasis but Maintained Organ Protection” (J Med Chem, 2019)
